Measurements taken from patent publication US20180085333A1, “4-PHENYLBUTYRIC ACID DERIVATIVES” (priority 2015, published 2018).

Columns and labels:
Parameters in all cases: species or system human
tinnitus = assay: In vivo activity of 4-PB against tinnitus (patient cases); settings: two male patients with tinnitus lasting more than ten years, after four months of treatment
Procedure: Two male patients with tinnitus, lasting for more than ten years, were treated with 4-PB.

[1] = system: major depressive disorder; assay: In vivo activity of 4-PB against major depressive disorder (patient cases)
Procedure: Four female patients and one patient with major depressive disorders, some of which suffering from other diseases, were treated with 4-PB.

ulcerative colitis = assay: In vivo activity of 4-PB against ulcerative colitis (patient case)
varicose veins = assay: In vivo activity of 4-PB against varicose veins (patient case)
Procedure: A patient with breast cancer was treated with 4-PB.

[2] = system: primary sclerosing cholangitis; assay: In vivo activity of 4-PB against primary sclerosing cholangitis (patient cases); settings: two female patients chosen for liver transplant, after 5 months of treatment
Procedure: Two female patients with primary sclerosing cholangitis were treated with 4-PB. Both had recurrent fever and abdominal pains for days. Both were chosen for liver transplant.

[3] = system: recurrent vulvo-vaginitis; assay: In vivo activity of 4-PB against recurrent vulvo-vaginitis (patient cases); settings: two female patients
Procedure: Two female patients were treated with 4-PB for other reasons (one for cancer and one for depressions).

psoriasis = assay: In vivo activity of 4-PB against psoriasis (patient case); settings: received 4-PB for colon carcinoma, after four months of treatment, lasting after sessions of 4-PB
Excerpt: A patient with generalized psoriasis, who has been treated for years with corticoids ointments, received 4-PB for a colon carcinoma.

C[C@@H](NC(=O)CCCc1ccccc1)C(=O)O [4-PB, N-(4-phenylbutanoyl)-D-alanine]
tinnitus (tinnitus): tinnitus has disappeared in both cases | depressions ([1]; four female patients and one patient with major depressive disorders): depressions disappeared in three to five months | recurrence of depression ([1]; four female patients and one patient, after disappearance of depressions): No recurrences have been observed | response of ulcerative colitis to 4-PB (ulcerative colitis; patient with recurrent episodes of ulcerative colitis): good response | bowel state and symptoms (pain, diarrhea) (ulcerative colitis; patient, after 6 months of treatment): bowels were normal and they had no pain and no diarrhea anymore | spider veins on both legs (varicose veins; patient with breast cancer treated with 4-PB): remained unchanged | enlarged (varicose) veins on both legs (varicose veins; patient with breast cancer, during therapy with 4-PB): disappearance of the enlarged veins on both legs | recurrence of enlarged veins (varicose veins; patient, in the next 10 years): without a recurrence | symptoms and signs of cholangitis [2]: both were free of symptoms and signs of the underlying cholangitis | presence of vulvo-vaginitis ([3]; after four months of treatment): both were free of vulvo-vaginitis | remission of vulvo-vaginitis after sessions of 4-PB ([3]; even after sessions of 4-PB): complete remission | remission of generalized psoriasis (psoriasis): complete remission
